The source of these data is patent US20250295615A1 (BOARD OF REGENTS, THE UNIVERSITY OF TEXAS SYSTEM, priority 2021, published 2025).

For data set [1] the following is noted: human, in vivo. From the text:
Population and Recruitment: We recruited healthy men enrolled in the SABOR study, which is a community-based prostate cancer screening cohort. The San Antonio Biomarkers of Risk (SABOR) study cohort was funded by the National Cancer Institute Early Detection Research Network-sponsored Clinical and Epidemiologic Validation Center since its nascent enrollment in 2000 (IRB #HSC20000030H). A separate IRB was approved for the phase 1 trial (IRB #HSC20190940H). Subjects had no prior diagnosis of prostate cancer at the time of enrollment and varied prostate cancer risk profiles. We used the local UT Health San Antonio Data Safety and Monitoring Board (DSMB).
(§1) Study Outcomes: Safety was compared to evaluate the number, frequency, duration, and relation of toxicity events to CURC and UA, as defined by the Common Terminology Criteria for Adverse Events (CTCAE) v 4.03. […] We also investigated the impact on the microbiome in a paired analysis for change and overall theme of imputed bacterial function.
Common Terminology Criteria for Adverse Events (CTCAE) v 4.03. […] A creatinine rise would indicate kidney dysfunction.

Data set [2] can be described thus: Phase 1 clinical trial, safety laboratory values (week 2 minus baseline). Format: in vivo, human. From the text: Laboratory Safety values. We perform laboratory analysis at baseline and at the end of the two-week study. We then subtracted the values (week 2-baseline) to obtain the differences for each participant.
The conditions of data set [3]: human, in vivo. The protocol: as §1
Measurement of Compounds: The compounds and their metabolites were measured using an UHPLC-MS/MS system performed on a Hybrid quadrupole-Orbitrap mass spectrometer (Q Exactive, Thermo Scientific, Waltham, MA, USA) hyphenated with a Thermo Scientific Vanquish Flex ultrahigh-pressure liquid chromatography (UHPLC) system via electrospray ionization source. For the parallel reaction monitoring (PRM) scan, the resolution, auto gain control (AGC) target, and maximum injection time (IT) were set at 17500, 2e5, and 100 ms. The All-Ion Fragmentation (AIF) scan consisted of a scan range of m/z 100-750 with NCE 10. The resolution, AGC target, and maximum IT for the AIF scan were set at 70000, 3e6, and 200 ms, respectively.
Statistical Analysis: Demographics between groups was compared using the Fischer Exact test for categorical variables and the Student's t-test for continuous variables. Safety laboratory values were analyzed using a paired t-test for differences, with significance set at p<0.05. ANOVA was used to compare plasma levels of UA, CURC, and CURC metabolites. Least significant difference (LSD) was used as the post hoc analysis test to compare values between groups.
This is another data set of the same source.

The subject of another data set is prostate tumor. To be noted: 7-year period, men taking the drug daily; cited from earlier work.
The next data set has as its system prostate cancer. As to conditions: mouse, in vivo; cited from earlier work.
Where [4] appears, read: week 2 minus baseline, median (IQR), n = 6.

Turning to `COc1cc(/C=C/C(=O)CC(=O)/C=C/c2ccc(O)c(OC)c2)ccc1O` [Curcumin, curcumin], the “Relationship To Study Treatment” value in data set [1] was “Unlikely”. Moreover, the “GFR after 2 weeks, individual participant” value in data set [2] (curcumin arm participant baseline 45, CurcUA participant baseline 76) was found to be 46. In data set [2] (setting [4]), the “Difference in ALT” value was −1.0 (−3.25 to 0.0), the “Difference in AST” value is reported as 2.0 (−2.0 to 3.3), the “Difference in Albumin” value was 0.05 (−0.05 to 0.2) and the “Difference in Alkaline Phosphatase” value was −2.0 (−5.5 to 9.3). Besides, in data set [2] (setting [4]), the “Difference in Bicarbonate” value is on record as −1.5 (−4.3 to 0.0), the “Difference in Bilirubin” value was −0.1 (−0.3 to 0.0), the “Difference in Calcium” value is listed as 0.2 (−0.15 to 0.32) and the “Difference in Chloride” value is given as −0.5 (−1.3 to 0.8). Also, in data set [2] (setting [4]), the “Difference in Creatinine” value is 0.07 (−0 07 to 0.16), the “Difference in Glomerular Filtration Rate (GFR)” value is reported as −5.5 (−12.0 to 4.5), the “Difference in Hematocrit” value was 0.25 (−1.45 to 2.35) and the “Difference in Hemoglobin” value is 0.20 (−0.30 to 0.55). Also, in data set [2] (setting [4]), the “Difference in Platelets” value is 7.0 (−5 to 31.5), the “Difference in Sodium” value was 0.0 (−1.5 to 1.0) and the “Difference in White blood cell (WBC)” value was 0.15 (−0.43 to 0.68). The “Plasma levels in words (FIG. 2)” value in data set [3] is “Minimal amounts of the parent curcumin compound and large amounts of curcumin glucuronide”.
As for `CC(C)(C)NC(=O)[C@H]1CC[C@H]2[C@@H]3CC[C@H]4NC(=O)C=C[C@]4(C)[C@H]3CC[C@]12C` [Finasteride], the “Reduction in prostate tumor prevalence” value in the data set on prostate tumor is listed as 24.8%.
As to `C[C@H]1[C@H](C)CC[C@]2(C(=O)O)CC[C@]3(C)C(=CC[C@@H]4[C@@]5(C)CC[C@H](O)C(C)(C)[C@@H]5CC[C@]43C)[C@H]12` [Ursolic Acid, ursolic acid], in data set [2] (setting [4]), the “Difference in ALT” value is given as 1.5 (1.0 to 12.8), the “Difference in AST” value was 2.0 (−1.3 to 3.3), the “Difference in Albumin” value is 0.0 (−0.1 to 0.2) and the “Difference in Alkaline Phosphatase” value is 2.5 (−2.5 to 5.0). Moreover, in data set [2] (setting [4]), the “Difference in Bicarbonate” value is 1.0 (−1.5 to 3.0), the “Difference in Bilirubin” value is 0.0 (−0.08 to 0.15), the “Difference in Calcium” value is on record as 0.03 (−0.05 to 0.48) and the “Difference in Chloride” value is −1.0 (−2.75 to 1.75). Further, in data set [2] (setting [4]), the “Difference in Creatinine” value is on record as −0.08 (−0.33 to 0.12), the “Difference in Glomerular Filtration Rate (GFR)” value is reported as −3.5 (−10.3 to 3.5), the “Difference in Hematocrit” value is 1.55 (−0.85 to 2.85) and the “Difference in Hemoglobin” value is 0.20 (−0.33 to 0.58). Also, in data set [2] (setting [4]), the “Difference in Platelets” value was 9.5 (2.5 to 27) and the “Difference in Sodium” value is 0.5 (−1.5 to 2.25). Besides, the “Plasma levels in words (FIG. 2)” value in data set [3] is reported as “modest absorption of ursolic acid”. In addition, the “Median plasma values of CURC and its metabolites” value in data set [3] (male, 14 day) was found to be 0.0 ng/mL. Also, in the data set on prostate cancer, the “Effect on prostate cancer in TRAMP mice” value was “inhibited initiation, progression, and metastasis of prostate cancer”.
